Test results reported in patent US10287265B2, “Enantiomers of 8-hydroxyquinoline derivatives and the synthesis thereof” (AVIDIN Co. Ltd., priority 2015, dated 2019).
“Also recorded” adds a separate entry of the source.

Key:
EPO gene = assay: Gene expression in primary astrocytes by qRT-PCR; assay type: cell-based, rat; details: 3 h, Example 2 at 330 nM and 1000 nM, PBT2 at 1000 nM
Protocol: (§1) Pure astrocyte culture was obtained from neonatal rats according to the protocol found in literature (Protocols for Neural Cell Culture 2001, pp 117-127. ch 9. Ruth Cole, Jean de Vellis. Preparation of Astrocyte, Oligodendrocyte, and Microglia Cultures from Primary Rat Cerebral Cultures). Astrocytes (1 million) were cultured in 100 mm TC-treated culture dishes (Orange Scientific, Belgium) in an incubator set at 37° C. and 5% CO2 with humid air. The R-enantiomeric derivative according to Example 2 was added to cells in two final concentrations: 330 nM and 1000 nM. Cells were also treated with 1000 nM PBT2 which bears the basic structure of the R-enantiomer according to Example 2 (8-hydroxy-quinoline ring) but contains conformational differences and was developed for the treatment of neurodegenerative disorders (Pub. No.: WO/2004/007461). Treatments were carried out with a 100 μM DMSO-based stock solution. Control cells were treated with the same amount of DMSO without the agent. Each treatment was conducted in three separate culture dishes. After treatment, cells were incubated at 37° C. for 3 h, then the medium was removed, cells were washed with PBS and total RNA was extracted from cells with the Accuzol™ Total RNA Extraction Solution (Bioneer, Daejeon, South Korea), according to the manufacturer's protocol. cDNA transcription was carried out with the High Capacity cDNA Reverse Transcription Kit (Life Technologies, Foster City, Calif., USA). During the test, the expression of four genes (PGK1, EPO, HMOX-1, VEGF) controlled by HIF1a was determined by qRT-PCR, with HPRT gene serving as a control. Relative expression of genes in treated samples was compared to untreated controls. The PCR was conducted with a LightCycler® Nano Instrument (Roche, Budapest, Hungary) in the presence of UPL (Universal Probe Library) probes (HPRT: 95, HMOX1: 4, EPO: 16, VEGF: 1, PGK1: 66), specific primers (HPRT1: 5′-gaccggttctgtcatgtcg-3′, HPRT2: 5′-[…]-3′; HMOX1-1: 5′-[…]-3′, HMOX1-2: 5′-ctgcagctcctcaaacagc-3′; EPO1: 5′-[…]-3′, EPO2: 5′-ccttctgcacagcccatt-3′; VEGF1: 5′-[…]-3′, VEGF2: 5′-[…]-3′; PGK1-1: 5′-[…]-3′, PGK1-2: 5′-gacttggctccattgtcca-3′) in 20 μl PCR reaction volume with 20 ng cDNA template and 10 μl Lightcycler DNA Probes Master (5×) Reagent Kit (Roche) according to the following protocol: activation of enzyme at 95° C. for 10 min, 50 cycles: denaturation at 95° C. for 15 sec, hybridization and polymerization, then detection at 60° C. for 30 sec.

HMOX-1 gene = assay: Gene expression in primary astrocytes by qRT-PCR; assay type: cell-based, rat; details: 3 h, Example 2 at 330 nM and 1000 nM, PBT2 at 1000 nM
Protocol: as §1

PGK1 gene = assay: Gene expression in primary astrocytes by qRT-PCR; assay type: cell-based, rat; details: in the cells
Protocol: as §1

VEGF gene = assay: Gene expression in primary astrocytes by qRT-PCR; assay type: cell-based, rat; details: in the cells
Protocol: as §1

C57BL6/J mice [1] = assay: Short-term memory impairment caused by amyloid peptide aggregates (icv Aβ oligomers), Y maze test; assay type: in vivo, mouse; details: 4 mg/kg body weight per os once daily for four days; Y maze at day 4 post Aβ
Protocol: (§2) In vivo experiments were carried out according to the National Institute of Health guidelines for the care and use of laboratory animals, approved by the French Ministry for Research and Technology. In the course of experiments, animals were housed at a standard temperature (22±1° C.) and in a light-controlled environment (lights on from 7 a.m. to 8 p.m.) with ad libitum access to food and water. Male C57BL/6 mice (C57BL/6J Rj, ref. SC-CJ-12w-M, Janvier, France) were housed 5 animals per cage. From one week before the start of the experiment until the end of the experiment, mice were housed individually. Animals were monitored twice-a-day by laboratory personnel (8 a.m. and 4 p.m.). In this project, young (14 weeks old) as well as aged (15-16 months old) mice were used. Experiments were carried out using 12 mice per experimental group.
Investigation of short-term working memory—Y maze test Y maze tests were carried out as previously described. Prior to testing, mice were brought to the experimental room for at least 30 min to acclimatize to experimental room conditions. The Y maze is made of opaque Plexiglas and each arm is 40 cm long, 16 cm high, 9 cm wide and positioned at equal angles. The apparatus was placed in the test room in such a way that it was brightened homogeneously with 12-15 lux in the arms as well as in the central zone. One mouse at a time was placed at the end of one arm and was allowed to move in the maze freely during a 5 min examination. Each arm entry was recorded with those entries being counted where the mouse completely placed its hind paws in the chosen arm. […] Results were calculated as the percentage of the ratio of actual detected alternations to possible alternations (defined as the number of total arm entries minus 2).
For the examination of memory impairment caused by Aβ oligomers, a mouse model developed and validated by SynAging was used. […] At day 4 post Aβ treatment, short-term memory was assessed with the Y maze test. […]
At day 4 post Aβ treatment, short-term memory was assessed with the Y maze test.

C57BL6/J mice [2] = assay: Scopolamine-induced short-term memory impairment, Y maze test; assay type: in vivo, mouse; details: per os gavage; scopolamine 0.6 mg/kg i.p. 30 min prior to Y maze test
Protocol: as §2
Investigation of short-term working memory—Y maze test Y maze tests were carried out as previously described. Prior to testing, mice were brought to the experimental room for at least 30 min to acclimatize to experimental room conditions. […] Each arm entry was recorded with those entries being counted where the mouse completely placed its hind paws in the chosen arm. […] Results were calculated as the percentage of the ratio of actual detected alternations to possible alternations (defined as the number of total arm entries minus 2). […]

[3] = system: BALB/c ear skin graft on C57BL/6 recipient mice; assay: Mouse skin transplantation, graft rejection scoring; assay type: in vivo; details: 5 mg/kg once every day from transplantation; Example 2 orally, tacrolimus intraperitoneal; scoring at day 9 and day 10
Protocol: Mouse skin transplantation is a standard method to assay host T cell responses to MHC-disparate donor antigens, which protocol was followed in the present example (Garrod and Cahalan; 2008). Briefly, WT C57BL/6 recipient mice (8-12 weeks old) and WT BALB/c donor mice (8-12 weeks old) were anesthetized with a combination of 10 mg/kg Xylazine and 100 mg/kg Ketamine administered by i.p. injection and 0.05 mg/kg Buprenorphine was administered by subcutaneous injection for analgesia. Ear skin (1.0 cm2) from the WT BALB/c donor mouse was grafted onto the flank of the WT C57BL/6 recipient. The implanted skin (graft) was covered with a sterile bandage, which was removed on day 7 post-transplant.
Recipients received either no treatment (controls), or treated with compound according to Example 2 orally at 5 mg/kg dose, once every day until the end of the experiment from the day of transplantation. […]
Different scores were used to define the quality of the grafts: intact grafts (Score 0), early stages of rejection (Score 1-4, corresponding to first clear signals of graft rejection: 1; >25% rejection rate: 2; >50% rejection rate: 3; >75% rejection rate: 4) up to complete graft rejection (Score 5). […] Average scores with SEM were calculated for each group.

## Cc1ccnc(N[C@@H](c2ccc(C(F)(F)F)cc2)c2ccc3cccnc3c2O)n1 [Example 3, 7-[(S)-[(4-Methylpyrimidin-2-yl)amino][4-(trifluoromethyl)phenyl]methyl]quinolin-8-ol]
EPO gene
  activation of EPO gene expression: capable to increase the gene activity; also recorded: highest inductive effect
HMOX-1 gene
  activation of HMOX-1 gene expression: capable to increase the gene activity; also recorded: caused the induction of HMOX-1 in astrocytes
PGK1 gene
  increase of PGK-1 gene activity: capable to increase the gene activity
VEGF gene
  increase of VEGF gene activity: capable to increase the gene activity
C57BL6/J mice [1]
  inhibition of short-term memory impairment caused by fibrillar aggregates of amyloid peptides: did not inhibit
C57BL6/J mice [2]
  inhibition of scopolamine-induced short-term memory impairment: did not inhibit

## CN(C)Cc1ccc2c(Cl)cc(Cl)c(O)c2n1 [PBT2, reference compound]
EPO gene
  activation of EPO gene expression: did not induced differences in gene activity
HMOX-1 gene
  activation of HMOX-1 gene expression: did not induced differences in gene activity

## C=CC[C@@H]1/C=C(\C)C[C@H](C)C[C@H](OC)[C@H]2O[C@@](O)(C(=O)C(=O)N3CCCC[C@H]3C(=O)O[C@H](/C(C)=C/[C@@H]3CC[C@@H](O)[C@H](OC)C3)[C@H](C)[C@@H](O)CC1=O)[C@H](C)C[C@@H]2OC [tacrolimus, reference compound]
[3]
  skin graft rejection score (0-5): smaller score values both on day 9 and on day 10
